Tested on: spontaneously hypertensive rats (SHR)
Experiment: Mean arterial blood pressure (MABP) and heart rate recording in conscious, unrestrained SHR after acute oral administration
Assay type: in vivo, rat
Settings: 1 hour (FIG. 2)
Description: RB150, the ACEI, enalapril (supplied from Merck Sharp and Dohme research Lab), and the ARB, valsartan (Sigma-Aldrich), were dissolved in sterile saline and adjusted to pH 7.4 for in vivo administration.
Male spontaneously hypertensive rats (SHR), weighing 250 to 350 g, were obtained from Charles River Laboratories (L'Arbresle, France) and animals were kept under artificial light (12-hours light/12-hours dark cycle) with a normal standard diet and water given ad libitum. The experiments were conducted according to the National Institutes of Health Guide for the Care and Use of Laboratory Animals.
Twelve weeks male SHR were anesthetized with pentobarbital sodium (60 mg/kg, i.p, Centravet). Catheters were implanted in the femoral artery. The femoral arterial catheter was brought under the skin and emerged at the nape of the neck. After surgery, each rat was given an intraperitoneal injection of 0.1 mL of penicillin-streptomycin (50,000 units/mL; Sigma) and allowed to recover for at least 24 hours before the experiment. […] Each experiment was monitored by using a COBE CDX III pressure transducer (Phymep, Paris, France) connected to the MacLab system (Phymep) consisting of a MacLab hardware unit and chart software running on a Macintosh computer. […]

## CCOC(=O)[C@H](CCc1ccccc1)N[C@@H](C)C(=O)N1CCC[C@H]1C(=O)O [enalapril]
Enalapril alone 3 mg/kg po
  BP decrease 1 hour after drug administration: did not induce any significant BP decrease

## N[C@@H](CCS(=O)(=O)O)CSSC[C@@H](N)CCS(=O)(=O)O [RB150, (3S,3S′) 4,4′-disulfanediylbis(3-aminobutane 1-sulfonic acid)]
RB150 alone 150 mg/kg po
  BP decrease 1 hour after drug administration: did not induce any significant BP decrease
